This note sets out measurements from patent US9206412B2, “Thioxothiazolidine inhibitors” (Colorado State University Research Foundation, priority 2012, dated 2015).

Values joined by “and” are separate entries in the source; they are usually repeats but may differ in a detail not shown here. Equal values may be shown once. “Also recorded” adds a separate entry of the source. Read-outs that look alike come from different tables or passages of the source.

Data set [1] has as its target T1, dengue virus capping enzyme (Dengue virus type 2, UniProt P29990).
T1 sequence (P29990 2492-2758): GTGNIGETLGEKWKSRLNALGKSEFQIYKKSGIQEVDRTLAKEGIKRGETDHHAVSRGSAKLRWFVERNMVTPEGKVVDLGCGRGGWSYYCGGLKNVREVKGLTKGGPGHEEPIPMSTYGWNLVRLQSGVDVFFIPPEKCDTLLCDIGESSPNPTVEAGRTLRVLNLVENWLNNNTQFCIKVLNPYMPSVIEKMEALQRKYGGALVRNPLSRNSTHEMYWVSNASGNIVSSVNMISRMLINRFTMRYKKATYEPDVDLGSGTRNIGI
Description: biochemical. The class given is binding, dengue virus type 2 (strain 16681).

The target of data set [2] is yellow fever virus capping enzyme (Yellow fever virus, UniProt P03314). Put plainly: biochemical. It is filed as binding, yellow fever virus (strain 17D).
Data set [3] concerns dengue type 2 virus subgenomic replicon (BHK-pD2hRucPac). Description: Antiviral (replicon) assay, Renilla luciferase. It is filed as cell-based.
The next data set has as its target dengue capping enzyme (Dengue virus type 2, UniProt P29990). Put plainly: Guanylation inhibition assay.
Data set [4] is described as follows: Cell viability (CellTiter-Glo) in replicon assay. Particulars: hamster, BHK-pD2hRucPac cells (dengue replicon cells). (In ATP-based viability assays light output follows the ATP content of the culture.)
The target of data set [5] is T1, dengue virus capping enzyme. It is filed as binding.
Data set [6] deals with West Nile virus (Kunjin subtype). It is filed as cell-based.
A further data set has as its system yellow fever (17D) virus. It is filed as cell-based.
The next data set deals with Sindbis virus pBG451. The class given is cell-based.
The test system of data set [7] is West Nile virus (Kunjin) RNA. Put plainly: qRT-PCR of Kunjin viral RNA in culture media. It is filed as cell-based. The protocol:
Quantitative Reverse Transcriptase Real-Time PCR Analysis. West Nile virus (Kunjin) RNA was extracted from cell culture media with Trizol LS (Invitrogen, La Jolla, Calif.) following the manufacturer's protocol. Quantitative reverse transcriptase real-time PCR reactions for Kunjin genomic RNA were performed using the Brilliant III Ultra-Fast SYBR QRT-PCR Master Mix (Catalog # 600886, Agilent, Santa Clara, Calif.) with primers Fwd 6170 (5′-[…] (SEQ ID NO: 1)) and Rev 6278 (5′-[…] (SEQ ID NO: 2)). To set up qRT-PCR reactions, 2 μL of extracted RNA was added to 5 μL of 2× master mix, 1 μL of 5 μM Fwd 6170 primer, 1 μL of 5 μM Rev 6278 primer, and 1 μL of 100 mM DTT in 96-well PCR plates with optically clear sealing films. No RNA and no primer controls were included in each experiment. qRT-PCR reactions were performed on a BioRad CFX384 real-time PCR thermal cycler using the following cycling conditions: Reverse transcriptase step=50° C., 10 minutes; denature step=95° C., 3 minutes; PCR (40 cycles)=95° C., 5 seconds/60° C., 10 seconds. Melt curves were performed at the end of each run, to verify the specificity of the detected SYBR signal. Cq values were determined by setting the threshold to 40 for all experiments. Standard curves were generated from diluted media containing Kunjin virus of known titer (PFU/mL), and the Cq values from experimental samples were compared to the standard curve to establish PFU equivalent/mL values for each sample (y=−3.475x+27.577, y=Cq , X=Log10(PFU)). The limit of detection in these experiments was determined to be 10 PFU equivalents/mL. All experiments were performed three times, and the average and standard error of the mean reported.

A further data set has as its system Kunjin virus NS5 protein. Put plainly: Western blot analysis of NS5 in Kunjin infected BHK cells. The note with it: MOI=0.01, 48 hours post-infection, increasing concentrations. For orientation: Immunoblotting shows a protein as a band on a membrane.
For the next data set, the system named is BHK-pD2hRucPac cells. Put plainly: Cell viability (CellTiter-Glo) in replicon assay. The note with it: read-out: Replicon Assay_CC50_M; Table 2-1.
For the next data set, the target named is WNV. Description: Ki determination, fluorescence polarization (FP_WNV_KI). The note with it: read-out: FP_WNV_KI_AVG_WNV_M; Table 2-1. In general terms: Polarisation of emitted light reports the rotation of a fluorescent probe.
The mark [8] stands for this setting: Dengue virus, 72 h, read-out: Replicon EC50, Table 3, 72 hours.
Setting [9] is: Dengue virus, read-out: Replicon Assay_EC50_M, Table 2-1.
Setting [10] is: Replicon Assay_CC50_M, Table 2-1.
[11] abbreviates: Replicon CC50, Table 3, 72 hours.
The mark [12] stands for this setting: Dengue virus, 72 h, read-out: Replicon EC50, 72 hours.
The mark [13] stands for this setting: Table 2-1, read-out: Replicon Assay_EC50_M.

The IC50 is the concentration needed to halve the response being measured. A low value points to greater potency in that assay.

yellow fever virus capping enzyme, sequence (P03314 2507-2774 limits assumed): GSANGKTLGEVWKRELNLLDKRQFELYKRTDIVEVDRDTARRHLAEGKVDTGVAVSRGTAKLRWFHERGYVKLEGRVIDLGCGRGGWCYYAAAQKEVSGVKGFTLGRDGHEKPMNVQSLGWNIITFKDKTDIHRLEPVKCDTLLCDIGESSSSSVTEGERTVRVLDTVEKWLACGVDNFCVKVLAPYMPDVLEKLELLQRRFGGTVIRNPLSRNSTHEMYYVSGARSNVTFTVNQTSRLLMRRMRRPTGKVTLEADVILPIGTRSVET

Regarding `O=C(O)CCN1C(=O)/C(=C/c2ccc(Cl)cc2Cl)SC1=S` [BG-330], the Ki in data set [1] (FP_DEN_Ki_AVG_DEN_M) worked out at 10 µM; in data set [1] (Ki (GTP displacement)), 9.8 µM; in data set [2] (FP_YF_KI_AVG_YF_M) it was 9 µM. For the same molecule, the EC50 in data set [3] (setting [8]) was 8.7 µM; in data set [3] (setting [9]) it was 9 µM. Further, the IC50 against dengue capping enzyme stood at 2.6 µM. Further, the CC50 at 72 h in data set [4] (setting [10]) is 11 µM; in data set [4] (setting [11]), 12 µM.
With `COc1c(I)cc(I)cc1/C=C1\SC(=S)N(CC(=O)O)C1=O` [BG-5], the “HTS Activity” value in [5] is “S (key: Weak (W)=50%-75% reduction in FP signal; Moderate (M)=76%-90% reduction; Strong (S)=>90% reduction)”.
`CC(C)(C)c1ccc(/C=C2/SC(=S)N(CCC(=O)O)C2=O)cc1` [BG-323, (E)-3-(5-(4-tert-butylbenzylidene)-4-oxo-2-thioxo-1,3-thiazolidin-3-yl)propanoic acid]: the Ki is 7.5 µM in [1] (FP_DEN_Ki_AVG_DEN_M); ~7 µM and 7.5 µM and ~10 µM in data set [1] (Ki (GTP displacement)); 9.5 µM in data set [2] (FP_YF_KI_AVG_YF_M); around 7 µM in [2] (Ki (GTP binding)). In addition, the EC50 in data set [3] (setting [8]) is 30.8 µM; in [3] (setting [12]) it was 30.8 µM; in data set [3] (setting [9]), 30.8 µM; in [3] (read-out: Replicon EC50, 72 hours) it was around 30 µM. Further, the “reduction of virus titers” value in data set [6] is reported as around 3 logs; in the data set with yellow fever (17D) virus, “slightly less robust effect”. The “Renilla signal of Sindbis virus” value in the data set on Sindbis virus pBG451 is recorded as “Only a very minor reduction in Renilla signal; also recorded: insensitive”. For the same molecule, in data set [7] (100 μM, fresh media every 24 hours for 72 hours), the “viral RNA in media with replacement of compound every 24 hours” value was “significantly reduced viral RNA in media over time”. The “viral RNA detectable in the media” value in data set [7] (BHK, Kunjin MOI=0.01, 50 μM or 100 μM, 72 hours post-infection) is “significantly reduced”. The “activity after pre-incubation in media at 37° C.” value in data set [7] (pre-incubated 3, 2, 1, or 0 days, 50 μM, Kunjin RNA at 72 hours) is listed as “becomes less active over longer incubation periods”. For the same molecule, in the data set on BHK cells, the cell viability entry was “minor reduction in cell viability”. In addition, the CC50 at 72 h in data set [4] (setting [10]) came out at 184 µM; in data set [4] (setting [11]), 184 µM; in [4] (Replicon CC50, text) it was 184 µM. Also, in the data set with Kunjin virus NS5 protein, the “viral NS5 protein level” value is recorded as “significant decrease in NS5”.
For the molecule `O=C(O)CN1C(=O)/C(=C/c2ccc(Oc3ccccc3)cc2)SC1=S` [BG-115], the “HTS Activity” value in data set [5] is “M (key: Weak (W)=50%-75% reduction in FP signal; Moderate (M)=76%-90% reduction; Strong (S)=>90% reduction)”.
The same measure, in the same setting: the value for `O=C(O)CN1C(=O)/C(=C/c2ccc(OCc3ccccc3)cc2)SC1=S` [BG-170] was “W (key: Weak (W)=50%-75% reduction in FP signal; Moderate (M)=76%-90% reduction; Strong (S)=>90% reduction)”.
On the same count and under the same terms, the entry for `O=C(O)CN1C(=O)/C(=C\c2ccc(-c3ccc(Cl)cc3Cl)o2)SC1=S` [2044-5240] is “M (key: Weak (W)=50%-75% reduction in FP signal; Moderate (M)=76%-90% reduction; Strong (S)=>90% reduction)”.
Take `NC(=O)c1ncn([C@@H]2O[C@H](CO)[C@@H](O)[C@H]2O)n1` [Ribavirin, reference compound]: the EC50 in [3] (setting [12]) was found to be 12 µM. Also, the CC50 at 72 h in [4] (Replicon CC50, text) came to 49 µM.
Consider `CC(C)(C)c1ccc(/C=C2\SC(=S)N(CCC(=O)O)C2=O)cc1` [BG295], for which the results for the Ki (in data set [1] (read-out: FP_DEN_Ki_AVG_DEN_M); in data set [2] (read-out: FP_YF_KI_AVG_YF_M); at WNV) were 2 µM, 2 µM and 8 µM, respectively. In addition, in data set [3] (setting [13]), the EC50 came out at 30 µM. Further, the CC50 with BHK-pD2hRucPac cells was found to be 114 µM.
With `O=C(O)CCN1C(=O)/C(=C/c2cccc(Cl)c2Cl)SC1=S` [BG-324], the Ki in [1] (FP_DEN_Ki_AVG_DEN_M) came to 10 µM; in data set [1] (Ki (GTP displacement)) it was 9.9 µM; in [2] (FP_YF_KI_AVG_YF_M), 16 µM. Moreover, the values for the EC50 in [3] (setting [8]) and in data set [3] (setting [9]) were 8.5 µM and 9 µM, respectively. On dengue capping enzyme, this molecule returned a concentration for half-maximal inhibition (IC50) of 155 µM. For the same molecule, the CC50 at 72 h in data set [4] (setting [10]) and in [4] (setting [11]) was 12 µM throughout.
Take `O=C(CCCN1C(=O)/C(=C/c2ccc(F)cc2)SC1=S)Nc1cccc(C(=O)O)c1` [BG124]: the Ki in data set [1] (read-out: FP_DEN_Ki_AVG_DEN_M) is 14 µM; in [2] (read-out: FP_YF_KI_AVG_YF_M), 18 µM. Moreover, in [3] (setting [13]), the EC50 turned out to be 80 µM. For the same molecule, the CC50 with BHK-pD2hRucPac cells worked out at 56 µM.
The like results for `Cc1cccc(N2C(=O)/C(=C/c3ccc(C(=O)O)cc3)SC2=S)c1C` [BG128] were, in that order, 11 µM, 13 µM, 45 µM and 42 µM.
For `O=C(O)CCN1C(=O)C(=Cc2ccc(-c3ccccc3[N+](=O)[O-])o2)SC1=S` [BG139], in that order: 5 µM, 7 µM, 51 µM and 56 µM.
The like results for `CC(C)c1ccc(/C=C2\SC(=S)N(CC(=O)O)C2=O)cc1` [BG182] were, in that order, 18 µM, 17 µM, 80 µM and 93 µM.
For the molecule `O=C(CN1C(=O)/C(=C/c2ccccc2F)SC1=S)Nc1cccc(C(=O)O)c1` [BG131], the figures for the Ki in data set [1] (read-out: FP_DEN_Ki_AVG_DEN_M) and in data set [2] (read-out: FP_YF_KI_AVG_YF_M) were 6 µM and 12 µM, respectively. Besides, in data set [3] (setting [13]), the EC50 stood at 54 µM. Besides, the CC50 in the data set with BHK-pD2hRucPac cells turned out to be 71 µM.
The like results for `O=C(O)C(Cc1ccccc1)N1C(=O)C(=CC=Cc2ccccc2)SC1=S` (stereo not drawn) [BG138] were, in that order, 3 µM, 4 µM, 32 µM and 33 µM.
For `O=C(O)C(Cc1ccccc1)N1C(=O)C(=Cc2ccccc2Cl)SC1=S` (racemic) [BG135], in that order: 4 µM, 5 µM, 39 µM and 44 µM.
For `COc1cc(/C=C2\SC(=O)N(Cc3ccc(F)cc3)C2=O)c(Br)cc1OCC(=O)O` [BG163], in that order: 5 µM, 9 µM, 32 µM and 38 µM.
